This passage reports melting point results from a melting point compilation (Tetko et al.).

For `O=C(O)C=Cc1c(F)cccc1Cl`, the melting point (as a rule, the temperature of the solid-liquid transition) lay within 163 to 165 °C. Molecule `C=C1C(=O)C23C(OC)CC4C5(C)CCCC4(COC5)C2C(OC(C)=O)CC1C3OC(C)=O` (stereo not drawn) showed a melting point of 160 °C. The figure for `CC1(C)C2CCC1(C)C(NC(=O)c1ccccc1)C2NC(=O)c1ccccc1` (stereo not drawn) is 148 °C; for `CCCCOc1ccc(-c2nnc3sc(/C=C/c4ccccc4)nn23)cc1` it is 79 to 81 °C.

The molecule `COc1cc(OC)c2cc(C(=O)c3cccc4ccccc34)c(=O)oc2c1` registered a melting point of 210 °C.

In turn, `C1COCCN2CCOCCOCCN(CCO1)CCOCCOCC2` gave a melting point of 68 to 72 °C.

Take `Cc1cc2ccccc2cc1CC(F)(F)F`: the melting point fell in the range of 75 to 75.5 °C.

`Cc1cc(N=Nc2ccc(N=Nc3ccccc3)cc2)ccc1N=Nc1ccc(N=Nc2ccccc2)cc1` returned a melting point of 209 °C. On to `O=Cc1csc2ccc(Br)cc12`, for which the melting point lay in the range of 106 to 107 °C.

In turn, `CC(=O)C=Cc1ccc(Cl)cc1` returned a melting point of 55 °C. For `CC(=O)OCC(=O)C1(OC(C)=O)CCC2(C)C(CCC3C4CCC(=O)C4(C)CCC32)C1` (stereo not drawn), the melting point was 141 °C. With `NNC(=O)CSC1CS(=O)(=O)c2cc([N+](=O)[O-])ccc21` (stereo not drawn) the figure was 181 to 182 °C. On to `O=C(O)CS(=O)(=O)C=Cc1ccccc1`, for which the melting point fell in the range of 151 to 154 °C. With `CCN1CCN(c2cc3c(cc2F)c(=O)c(C(=O)O)cn3C2CC2)CC1` the figure was 220 °C. Molecule `FC(F)=C(F)Cl` gave a melting point of -109 °C.

For `C=C(C)C(=O)OCC`, the melting point was -60 °C.

In turn, `COc1c(Cl)c(Cl)cc(Cl)c1Cl` yielded a melting point of 88.5 °C. `O=Cc1cccc2c(Br)ccc([N+](=O)[O-])c12` showed a melting point of 135 °C. Consider `O=S(=O)(Cl)c1cccc(Cl)c1Cl`, for which the melting point was in the range of 61 to 63 °C. With `Clc1cc(Br)ccc1Br` the figure was 40 °C; with `O=[N+]([O-])c1ncc[nH]1`, 287 °C; with `BrCCOc1cccc2c1OCCO2`, 85 to 86 °C.

`O=C1C(C(O)c2ccc(Cl)cc2)C(C(F)(F)F)=NN1c1ccccc1` (stereo not drawn) came in with a melting point of 168 °C. Take `OCc1ccc(-c2ccccn2)cc1`: the melting point fell in the range of 49 to 51 °C. Molecule `CC(C)NCC(O)c1ccc([N+](=O)[O-])cc1` (stereo not drawn) yielded a melting point of 98 °C. `COC(OC)(OC)OC` showed a melting point of -5 °C.

Molecule `NCC(O)COc1ccccc1` (stereo not drawn) showed a melting point of 146 °C. For `CC(C)(NC(=O)C(Br)C(C)(C)C)c1ccccc1` (stereo not drawn), the melting point stood at 180 °C.

`O=C(O)c1cccc2cccnc12`: the melting point is 187 °C.

As to `O=C1NN(c2ccccc2)C(=O)C1=Cc1ccc(F)cc1`, the melting point turned out to be 300 °C. The molecule `COc1ccc(C#N)cc1Br` registered a melting point of 122 °C. `NNC(=O)C(N)=O` came in with a melting point of 216 to 218 °C.

As to `CCCCCCCCOc1ccccc1`, the melting point amounted to 8 °C. As to `Clc1ccc(-c2nc3c4ccccc4ccn3n2)cc1`, the melting point is 238 °C. `CCc1ccccc1NCN1C(=O)c2ccccc2C1=O`: the melting point stood at 104 °C. Molecule `CC(=O)c1ccc(NC(=O)C(F)(F)C(F)(F)C(F)(F)C(F)(F)C(F)(F)C(F)(F)C(F)(F)C(F)(F)F)cc1` had a melting point of 155 °C.

Molecule `Cc1c2ccccc2nc2ccccc12` returned a melting point of 118 °C. For `COC(=O)c1cccc(Cl)c1Cl`, the melting point lay in the range of 33 to 38 °C. Molecule `CC(C)NC(=S)NC(C)C` had a melting point of 144 °C.

Consider `O=C(O)c1cccc2ccsc12`, for which the melting point was in the range of 176 to 178 °C. `C[C@]12CCC(=O)C[C@H]1CC[C@H]1[C@H]3CCC(=O)[C@@]3(C)CC[C@@H]12` came in with a melting point of 179 to 180 °C. Take `N#Cc1cccc(I)c1`: the melting point worked out at 40 °C. The figure for `N#C/C(=N/Nc1cccc(C(F)(F)F)c1)c1nc2ccccc2c(=O)[nH]1` is 238 °C.
